This is an account of results in patent publication US20090029992A1, “SUBSTITUTED PYRAZOLE COMPOUNDS” (priority 2007, published 2009).

Experiment [1] deals with T1, N-terminal His6-tagged recombinant human KDR, residues 790-end (Homo sapiens, UniProt P35968).
T1 construct: recombinant human KDR, residues 790-end; His6 (N); purchased Upstate USA Inc, 706 Forest Street, Charlottesville, Va
Put plainly: KDR kinase inhibition assay (33P-ATP filter assay). Type of experiment: biochemical. Summed up:
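His6-tagged human KDR (residues 790-end, 5-10 mU) with 0.33 mg/mL myelin basic protein in 8 mM MOPS pH 7.0, 0.2 mM EDTA, 10 mM magnesium acetate and [γ-33P]ATP; 40 min at room temperature. Stopped with phosphoric acid, filter-bound 33P counted; inhibition relative to no-inhibitor controls.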

Another experiment addresses T2, recombinant Aurora A (Homo sapiens, UniProt O14965).
T2 construct: purchased Upstate, Lake Placid, N.Y
T2 sequence (O14965 1-403): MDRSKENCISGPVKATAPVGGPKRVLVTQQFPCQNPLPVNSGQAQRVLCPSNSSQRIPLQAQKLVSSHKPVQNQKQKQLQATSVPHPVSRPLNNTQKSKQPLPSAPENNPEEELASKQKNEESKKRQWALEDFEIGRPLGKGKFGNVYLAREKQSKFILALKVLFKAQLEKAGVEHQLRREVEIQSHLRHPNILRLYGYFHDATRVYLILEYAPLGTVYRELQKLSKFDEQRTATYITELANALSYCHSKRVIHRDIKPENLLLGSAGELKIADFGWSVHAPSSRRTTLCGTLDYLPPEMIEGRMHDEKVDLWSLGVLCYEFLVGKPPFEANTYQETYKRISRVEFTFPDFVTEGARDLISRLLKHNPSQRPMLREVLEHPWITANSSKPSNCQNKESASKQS
Kind of experiment: Aurora A (Aurora 2) inhibition assay, Z'-Lyte kinase assay. Type of experiment: biochemical. To be noted: ATP 10 μM, 1 h. In a few lines: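 Z'-Lyte FRET assay: Aurora A (200-500 ng/mL final), Ser/Thr 1 peptide (2 μM) and ATP (10 μM) in 50 mM HEPES pH 7.5, 10 mM MgCl2, 5 mM EGTA, 0.05% Brij-35, 2 mM DTT, 1 h at room temperature. Coumarin/fluorescein emission ratio converted to percent phosphorylation; dose-response curves plotted.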

The next experiment has as its system HCT116 cells. Put plainly: Whole cell cytotoxicity assay, Sulforhodamine B. Type of experiment: cell-based. To be noted: Homo sapiens, HCT-116, HCT116, 96 hours incubation, SRB; for GI50: read-out: GI50 HCT116 cell growth; for IC50: read-out: IC50 values in this assay (HCT116 cell growth). In a few lines:
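HCT116 cells (500/well) in DMEM/10% FBS/2 mM glutamine were preincubated 24 h, then exposed to compound for 96 h at 37 °C, 5% CO2, in duplicate. Cells were fixed with TCA and stained with sulforhodamine B (A570). GI50, TGI and LC50 were derived relative to a time-zero plate and an untreated control.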

The mark [2] stands for this setting: group with IC50 greater than 100 nM.

T1 sequence (P35968 790-1356 limits assumed): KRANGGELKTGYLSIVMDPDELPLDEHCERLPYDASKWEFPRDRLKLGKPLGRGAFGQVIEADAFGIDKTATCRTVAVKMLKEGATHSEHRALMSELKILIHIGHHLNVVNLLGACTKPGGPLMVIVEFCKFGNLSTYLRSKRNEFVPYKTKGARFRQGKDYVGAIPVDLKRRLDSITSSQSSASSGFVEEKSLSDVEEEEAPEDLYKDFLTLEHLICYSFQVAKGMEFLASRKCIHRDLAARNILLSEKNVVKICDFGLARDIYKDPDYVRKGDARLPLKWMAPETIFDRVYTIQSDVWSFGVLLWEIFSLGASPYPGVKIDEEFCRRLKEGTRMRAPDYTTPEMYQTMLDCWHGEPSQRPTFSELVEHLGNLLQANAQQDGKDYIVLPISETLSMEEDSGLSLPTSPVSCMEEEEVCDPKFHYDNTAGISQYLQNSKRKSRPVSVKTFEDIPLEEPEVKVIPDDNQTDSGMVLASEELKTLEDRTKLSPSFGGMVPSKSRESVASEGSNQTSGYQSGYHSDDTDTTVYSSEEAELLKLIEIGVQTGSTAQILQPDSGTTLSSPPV

By IC50 is commonly meant the midpoint of a concentration-inhibition curve. What is called GI50 is the concentration that inhibits growth by half. In the case of `Cc1cc(Nc2cc(N3CCN(C)CC3)nc(-c3cc4ccccc4n3C)n2)n[nH]1` [Compound 2, 2-(1-methyl-1H-indol-2-yl)-N-(5-methyl-1H-pyrazol-3-yl)-6-(4-methylpiperazin-1-yl)pyrimidin-4-amine], the IC50 (in experiment [1] (40 minutes at room temperature); on recombinant Aurora A) was not above 0.1 µM throughout. In the experiment with HCT116 cells, the GI50 is not above 1 µM.

For the compound `Cc1cc(Nc2cc(NC3CCOCC3)nc(-c3cccc4ccoc34)n2)n[nH]1` [Example 204, 2-(benzofuran-7-yl)-N^4-(5-methyl-1H-pyrazol-3-yl)-N^6-(tetrahydro-2H-pyran-4-yl)pyrimidine-4,6-diamine], the IC50 in experiment [1] (setting [2]) is not above 1 µM; on recombinant Aurora A (setting [2]) it was not above 1 µM; in the experiment with HCT116 cells, 1 to 10 µM.

Consider `COCCN(C)c1cc(Nc2cc(C)[nH]n2)nc(-c2ccc3c(c2)OCO3)n1` [Example 153, 2-(benzo[d][1,3]dioxol-5-yl)-N^4-(2-methoxyethyl)-N^4-methyl-N^6-(5-methyl-1H-pyrazol-3-yl)pyrimidine-4,6-diamine], for which the figures for the IC50 (in experiment [1] (setting [2]); on recombinant Aurora A; with HCT116 cells) were not above 1 µM, not above 0.1 µM and 1 to 10 µM, respectively.

Consider `COCCN(C)c1cc(Nc2cc(C)[nH]n2)nc(-c2cccc(N(C)C)c2)n1` [Compound 119, 2-(3-(dimethylamino)phenyl)-N^4-(2-methoxyethyl)-N^4-methyl-N^6-(5-methyl-1H-pyrazol-3-yl)pyrimidine-4,6-diamine], for which the IC50 in experiment [1] (setting [2]) is not above 1 µM; on recombinant Aurora A, not above 0.1 µM; in the experiment on HCT116 cells it was 1 to 10 µM.

On to `Cc1cc(Nc2cc(N3CCN(C)CC3)nc(-c3cccc4ccccc34)n2)n[nH]1` [Example 134, N-(5-methyl-1H-pyrazol-3-yl)-6-(4-methylpiperazin-1-yl)-2-(naphthalen-1-yl)pyrimidin-4-amine], for which the IC50 is not above 0.1 µM in experiment [1] (40 minutes at room temperature), not above 0.1 µM at recombinant Aurora A and 1 to 10 µM in the experiment with HCT116 cells.

For `Cc1cc(Nc2cc(N3CCN(C)CC3)nc(-c3cccc(-c4ccccc4)c3)n2)n[nH]1` [Compound 16, 2-(biphenyl-3-yl)-N-(5-methyl-1H-pyrazol-3-yl)-6-(4-methylpiperazin-1-yl)pyrimidin-4-amine], the IC50 (in experiment [1] (40 minutes at room temperature); on recombinant Aurora A) was not above 0.1 µM each time. In the experiment on HCT116 cells, the GI50 is not above 1 µM.

Regarding `CCOc1cccc(-c2nc(Nc3cc(C)[nH]n3)cc(N3CCN(C)CC3)n2)c1` [Example 190, 2-(3-ethoxyphenyl)-N-(5-methyl-1H-pyrazol-3-yl)-6-(4-methylpiperazin-1-yl)pyrimidin-4-amine], the IC50 (in experiment [1] (40 minutes at room temperature); at recombinant Aurora A) was not above 0.1 µM each time. Besides, in the experiment with HCT116 cells, the GI50 was not above 1 µM.

Turning to `COc1ccc(F)c(-c2nc(Nc3cc(C)[nH]n3)cc(N3CCN(C)CC3)n2)c1` [Example 197, 2-(2-fluoro-5-methoxyphenyl)-N-(5-methyl-1H-pyrazol-3-yl)-6-(4-methylpiperazin-1-yl)pyrimidin-4-amine], the IC50 (in experiment [1] (40 minutes at room temperature); on recombinant Aurora A) was not above 0.1 µM each time. Besides, the GI50 with HCT116 cells was not above 1 µM.

With `Cc1cc(Nc2cc(N3CCN(C)CC3)nc(-c3cc4ccccc4o3)n2)n[nH]1` [Compound 1, 2-(benzofuran-2-yl)-N-(5-methyl-1H-pyrazol-3-yl)-6-(4-methylpiperazin-1-yl)pyrimidin-4-amine], the IC50 (in experiment [1] (40 minutes at room temperature); on recombinant Aurora A) was not above 0.1 µM in each case. In the experiment on HCT116 cells, the GI50 is not above 1 µM.

Turning to `Cc1cc(Nc2cc(NC3CCOCC3)nc(-c3ccc(F)cc3)n2)n[nH]1` [Compound 19, 2-(4-fluorophenyl)-N^4-(5-methyl-1H-pyrazol-3-yl)-N^6-(tetrahydro-2H-pyran-4-yl)pyrimidine-4,6-diamine], the IC50 is not above 1 µM in experiment [1] (setting [2]), not above 1 µM on recombinant Aurora A (setting [2]) and 1 to 10 µM in the experiment on HCT116 cells.

As to `COc1ccc(-c2nc(Nc3cc(C)[nH]n3)cc(N3CCN(C)CC3)n2)cc1` [Compound 41, 2-(4-methoxyphenyl)-N-(5-methyl-1H-pyrazol-3-yl)-6-(4-methylpiperazin-1-yl)pyrimidin-4-amine], the IC50 (in experiment [1] (40 minutes at room temperature); at recombinant Aurora A) was not above 0.1 µM each time. The GI50 with HCT116 cells was not above 1 µM.

As to `Cc1cc(Nc2cc(N3CCN(C)CC3)nc(-c3ccccc3C)n2)n[nH]1` [Compound 40, N-(5-methyl-1H-pyrazol-3-yl)-6-(4-methylpiperazin-1-yl)-2-o-tolylpyrimidin-4-amine], the results for the IC50 (in experiment [1] (40 minutes at room temperature); at recombinant Aurora A (setting [2]); with HCT116 cells) were not above 0.1 µM, not above 1 µM and 1 to 10 µM, respectively.

For `Cc1cccc(-c2nc(Nc3cc(C)[nH]n3)cc(N3CCN(C)CC3)n2)c1` [Compound 39, N-(5-methyl-1H-pyrazol-3-yl)-6-(4-methylpiperazin-1-yl)-2-m-tolylpyrimidin-4-amine], the IC50 (in experiment [1] (40 minutes at room temperature); at recombinant Aurora A) was not above 0.1 µM in each case. In addition, the GI50 in the experiment on HCT116 cells is not above 1 µM.

`Cc1cc(Nc2cc(N3CCN(C)CC3)nc(-c3ccco3)n2)n[nH]1` [Compound 14, 2-(furan-2-yl)-N-(5-methyl-1H-pyrazol-3-yl)-6-(4-methylpiperazin-1-yl)-pyrimidin-4-amine]: the figures for the IC50 (in experiment [1] (setting [2]); on recombinant Aurora A (setting [2]); in the experiment on HCT116 cells) were not above 1 µM, not above 1 µM and 1 to 10 µM, respectively.

Turning to `CC(=O)N1CCN(c2cc(Nc3cc(C)[nH]n3)nc(-c3cc4ccccc4n3C)n2)CC1` [Compound 6, 1-(4-(6-(5-methyl-1H-pyrazol-3-ylamino)-2-(1-methyl-1H-indol-2-yl)pyrimidin-4-yl)-piperazin-1-yl)ethanone], the IC50 (in experiment [1] (40 minutes at room temperature); at recombinant Aurora A) was not above 0.1 µM in each case. Further, the GI50 in the experiment on HCT116 cells is not above 1 µM.

For `COCCNc1cc(Nc2cc(C)[nH]n2)nc(-c2ccccc2)n1` [Compound 10, N^4-(2-methoxyethyl)-N^6-(5-methyl-1H-pyrazol-3-yl)-2-phenylpyrimidine-4,6-diamine], the IC50 is not above 0.1 µM in experiment [1] (40 minutes at room temperature), not above 0.1 µM at recombinant Aurora A and 1 to 10 µM in the experiment on HCT116 cells.

Regarding `Cc1cc(Nc2cc(N3CCN(C)CC3)nc(-c3cccc(OC(F)(F)F)c3)n2)n[nH]1` [Example 192, N-(5-methyl-1H-pyrazol-3-yl)-6-(4-methylpiperazin-1-yl)-2-(3-(trifluoromethoxy)phenyl)pyrimidin-4-amine], the IC50 in experiment [1] (setting [2]) is not above 1 µM; at recombinant Aurora A, not above 0.1 µM; with HCT116 cells, 1 to 10 µM.

As to `Cc1cc(Nc2cc(N3CCN(C)CC3)nc(-c3ccc4c(c3)OCCO4)n2)n[nH]1` [Example 137, 2-(2,3-dihydrobenzo[b][1,4]dioxin-6-yl)-N-(5-methyl-1H-pyrazol-3-yl)-6-(4-methylpiperazin-1-yl)pyrimidin-4-amine], the IC50 (in experiment [1] (40 minutes at room temperature); on recombinant Aurora A) was not above 0.1 µM in each case. In the experiment with HCT116 cells, the GI50 is not above 1 µM.

In the case of `Cc1cc(Nc2cc(NC3CCOCC3)nc(-c3cccc(F)c3)n2)n[nH]1` [Compound 20, 2-(3-fluorophenyl)-N^4-(5-methyl-1H-pyrazol-3-yl)-N^6-(tetrahydro-2H-pyran-4-yl)pyrimidine-4,6-diamine], the values for the IC50 (in experiment [1] (40 minutes at room temperature); at recombinant Aurora A; in the experiment on HCT116 cells) were not above 0.1 µM, not above 0.1 µM and 1 to 10 µM, respectively.

As for `Cc1cc(Nc2cc(NC3CCOCC3)nc(-c3cccc(-c4ccccc4)c3)n2)n[nH]1` [Example 159, 2-(biphenyl-3-yl)-N^4-(5-methyl-1H-pyrazol-3-yl)-N^6-(tetrahydro-2H-pyran-4-yl)pyrimidine-4,6-diamine], the IC50 was not above 1 µM in experiment [1] (setting [2]), not above 0.1 µM on recombinant Aurora A and 1 to 10 µM with HCT116 cells.

Regarding `Cc1cc(Nc2cc(N3CCN(C)CC3)nc(-c3cccc(F)c3F)n2)n[nH]1` [Example 200], the figures for the IC50 (in experiment [1] (40 minutes at room temperature); at recombinant Aurora A (setting [2])) were not above 0.1 µM and not above 1 µM, respectively. For the same compound, in the experiment with HCT116 cells, the GI50 is not above 1 µM.
